From US7888120B2, “Global regulator of morphogenesis and pathogenicity in dimorphic fungi and uses thereof” (Wisconsin Alumni Research Foundation, priority 2006, dated 2011)

Test system: B. dermatitidis mutant 4-2-2
Format: cell-based, Blastomyces dermatitidis

SMILES | Sensitivity of mutant versus parent strain T53-19
O=S(=O)([O-])c1cc(Nc2nc(Nc3ccccc3)nc(N(CCO)CCO)n2)ccc1/C=C/c1ccc(Nc2nc(Nc3ccccc3)nc(N(CCO)CCO)n2)cc1S(=O)(=O)[O-].[Na+].[Na+] [calcofluor] | more sensitive than the parent strain
Nc1c(/N=N/c2ccc(-c3ccc(/N=N/c4cc(S(=O)(=O)O)c5ccccc5c4N)cc3)cc2)cc(S(=O)(=O)O)c2ccccc12 [Congo red] | more sensitive than the parent strain
